Laboratory results taken from US9796725B2, “Pyrazolopyrimidinyl inhibitors of ubiquitin-activating enzyme” (Millennium Pharmaceuticals, Inc., priority 2012, dated 2017).
pIC50: −log10 of the molar value.

Key:
recombinant human UAE = recombinant human UAE (Homo sapiens (Human), UniProt P22314); test: Ubiquitin Activating Enzyme (UAE) HTRF Assay
Method: After incubation for 120 minutes, quantification of the FRET is performed on the Pherostar (BMG).
For compounds whose values are marked with an asterisk (*), mouse UAE was used. For all other compounds, human UAE was used.

[1] = tested on: mouse acute myeloid leukemia (AML model); details: cited from earlier work

Chain of recombinant human UAE (P22314 whole entry): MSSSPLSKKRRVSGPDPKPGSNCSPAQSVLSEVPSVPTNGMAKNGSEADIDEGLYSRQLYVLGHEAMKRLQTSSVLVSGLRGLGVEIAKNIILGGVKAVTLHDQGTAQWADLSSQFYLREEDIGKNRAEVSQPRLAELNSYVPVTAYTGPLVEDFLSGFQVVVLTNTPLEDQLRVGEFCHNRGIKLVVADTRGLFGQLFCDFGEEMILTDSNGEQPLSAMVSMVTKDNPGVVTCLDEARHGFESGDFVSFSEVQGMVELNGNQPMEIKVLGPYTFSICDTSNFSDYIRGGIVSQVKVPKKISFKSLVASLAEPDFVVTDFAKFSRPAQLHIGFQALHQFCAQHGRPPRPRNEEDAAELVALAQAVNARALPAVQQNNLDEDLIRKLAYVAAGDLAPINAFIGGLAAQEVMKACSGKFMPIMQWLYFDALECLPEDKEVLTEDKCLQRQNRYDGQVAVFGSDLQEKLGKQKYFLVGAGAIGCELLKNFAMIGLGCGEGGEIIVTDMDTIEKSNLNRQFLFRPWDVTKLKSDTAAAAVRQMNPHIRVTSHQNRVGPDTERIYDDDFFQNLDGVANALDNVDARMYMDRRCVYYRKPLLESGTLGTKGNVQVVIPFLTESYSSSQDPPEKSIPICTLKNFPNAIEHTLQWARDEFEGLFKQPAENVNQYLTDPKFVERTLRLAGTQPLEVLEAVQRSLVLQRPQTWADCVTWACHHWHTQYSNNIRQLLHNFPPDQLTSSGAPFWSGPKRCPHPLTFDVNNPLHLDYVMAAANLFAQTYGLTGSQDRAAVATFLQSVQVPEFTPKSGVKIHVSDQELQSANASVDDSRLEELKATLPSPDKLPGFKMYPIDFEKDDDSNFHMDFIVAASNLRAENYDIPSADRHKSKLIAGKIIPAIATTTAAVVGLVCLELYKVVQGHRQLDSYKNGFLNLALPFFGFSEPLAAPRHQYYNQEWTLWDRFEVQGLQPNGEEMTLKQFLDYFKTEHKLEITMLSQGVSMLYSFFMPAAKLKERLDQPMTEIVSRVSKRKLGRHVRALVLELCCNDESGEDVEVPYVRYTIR

pIC50 (recombinant human UAE) | SMILES | anti-tumor activity [1]
> 8.00 | COc1ccc(C(C)(C)C)cc1-c1cc2nccc(N[C@@H]3C[C@H](COS(N)(=O)=O)[C@@H](O)[C@H]3O)n2n1 (racemic) [Compound I-063, (rac)-((1R,2R,3S,4R)-4-{[2-(5-tert-butyl-2-methoxyphenyl)pyrazolo[1,5-a]pyrimidin-7-yl]amino}-2,3-dihydroxycyclopentyl)methyl rel-sulfamate] | –
> 8.00 | NS(=O)(=O)OC[C@H]1C[C@@H](Nc2ccnc3cc(-c4cccc5cc(C(=O)O)ccc45)nn23)[C@H](O)[C@@H]1O (relative stereo) [Compound I-099, (rac)-rel-5-[7-({(1R,2S,3R,4R)-2,3-dihydroxy-4-[(sulfamoyloxy)methyl]cyclopentyl}amino)pyrazolo[1,5-a]pyrimidin-2-y1]-2-naphthoic acid] | –
– | O=C1NN(c2ccc(F)c(Cl)c2)C(=O)/C1=C\c1ccc([N+](=O)[O-])o1 [PYZD-4409] | demonstrated anti-tumor activity
